Experimental data taken from patent US20220380319A1 (Bial - R&D Investments, S.A., priority 2019, published 2022).
Converted amounts (≈) assume the structure as drawn.

How the values were obtained:
acid ceramidase = biological target: T1, acid ceramidase (Homo sapiens, UniProt Q13510); assay: Acid ceramidase inhibition, biochemical fluorescent assay with cell lysates overexpressing acid ceramidase, substrate Rbm14-12; settings: substrate Rbm14-12 6.3 μM, pH 4.5
T1 construct: Cell lysates overexpressing acid ceramidase were used as the enzyme source; expressed in transfected cells
T1 sequence (Q13510 22-395): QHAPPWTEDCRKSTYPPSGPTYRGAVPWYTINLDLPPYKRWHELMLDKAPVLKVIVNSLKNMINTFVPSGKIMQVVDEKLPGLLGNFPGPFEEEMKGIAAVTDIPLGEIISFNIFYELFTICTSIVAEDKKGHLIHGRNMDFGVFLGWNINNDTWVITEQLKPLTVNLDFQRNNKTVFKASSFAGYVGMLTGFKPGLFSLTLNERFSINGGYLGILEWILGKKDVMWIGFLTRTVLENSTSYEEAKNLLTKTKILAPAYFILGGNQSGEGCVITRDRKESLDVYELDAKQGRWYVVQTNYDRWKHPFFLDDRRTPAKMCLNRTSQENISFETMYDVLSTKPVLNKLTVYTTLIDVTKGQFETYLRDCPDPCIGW
In short: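 Lysate of cells overexpressing acid ceramidase (10 μg protein) preincubated with compound dose series 1 hr at RT in 25 mM NaAC, 100 mM NaCl, pH 4.5, then reacted 1 hr with 6.3 μM Rbm14-12. Stopped with NaIO4/glycine buffer pH 10.6, fluorescence ex360/em446; IC50 by four-parameter fit.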

[1] = Compound solubility in water

| SMILES | IC50 (acid ceramidase) | solubility [1] |
| --- | --- | --- |
| CC(C)CCNC(=O)n1cnc2c(N3CCN(C)C(CF)C3)cccc21 (stereo not shown) [Example 201, 4-(3-(Fluoromethyl)-4-methylpiperazin-1-yl)-N-isopentyl-1H-benzo[d]imidazole-1-carboxamide] | 200 to 1000 nM | 28 µg/mL (≈ 77.5 µM) |
| CC(C)CCNC(=O)n1cnc2c(N3CCN(C4CC4)C(=O)C3)cccc21 [Example 206, 4-(4-Cyclopropyl-3-oxopiperazin-1-yl)-N-isopentyl-1H-benzo[d]imidazole-1-carboxamide] | 200 to 1000 nM | 20 µg/mL (≈ 54.1 µM) |
| CC(C)CCNC(=O)n1cnc2c(N3CCN(C(C)C)CC3)cccc21 [Example 207, N-iso-Pentyl-4-(4-isopropylpiperazin-1-yl)-1H-benzo[d]imidazole-1-carboxamide] | 200 to 1000 nM | 32 µg/mL (≈ 89.5 µM) |
| COc1nc2c(N3CCN(C)CC3)cc(C#N)cc2n1C(=O)NCCC(C)C [Example 210, 6-Cyano-N-iso-pentyl-2-methoxy-4-(4-methylpiperazin-1-yl)-1H-benzo[d]imidazole-1-carboxamide] | < 200 nM | 12 µg/mL (≈ 31.2 µM) |
| COc1nc2c(N3CCOCC3)cncc2n1C(=O)NCCC(C)C [Example 211, N-iso-Pentyl-2-methoxy-7-morpholino-3H-imidazo[4,5-c]pyridine-3-carboxamide] | < 200 nM | 26 µg/mL (≈ 74.8 µM) |
| COc1nc2cnc(N3CCOCC3)cc2n1C(=O)NCCCc1ccccc1 [Example 213a, 2-Methoxy-6-morpholino-N-(3-phenylpropyl)-1H-imidazo[4,5-c]pyridine-1-carboxamide] | < 200 nM | 9 µg/mL (≈ 22.8 µM) |
| COc1nc2cc(F)c(N3CCOCC3)cc2n1C(=O)NCCCCc1ccccc1 [Example 214, 5-Fluoro-2-methoxy-6-morpholino-N-(4-phenylbutyl)-1H-benzo[d]imidazole-1-carboxamide] | < 200 nM | 0.3 µg/mL (≈ 0.703 µM) |
| O=C(NCCCc1ccccc1)n1cnc2c(N3CCC4(CC3)COC4)cccc21 [Example 216, N-(3-Phenylpropyl)-4-(2-oxa-7-azaspiro[3.5]nonan-7-yl)-1H-benzo[d]imidazole-1-carboxamide] | < 200 nM | 2.5 µg/mL (≈ 6.18 µM) |
| O=C(NCCCCc1ccccc1)n1cnc2c(N3CCC4(CC3)COC4)cccc21 [Example 217, N-(4-Phenylbutyl)-4-(2-oxa-7-azaspiro[3.5]nonan-7-yl)-1H-benzo[d]imidazole-1-carboxamide] | < 200 nM | 0.6 µg/mL (≈ 1.43 µM) |
| C[C@@H]1CN(c2cccc3c2ncn3C(=O)NCCCc2ccccc2)C[C@H](C)O1 [Example 219, 4-((2S,6R)-2,6-Dimethylmorpholino)-N-(3-phenylpropyl)-1H-benzo[d]imidazole-1-carboxamide] | < 200 nM | 0.5 µg/mL (≈ 1.27 µM) |
| CC(C)CCNC(=O)n1cnc2c(N3[C@@H]4CC[C@H]3COC4)cccc21 [Example 220, 4-((1R,5S)-3-Oxa-8-azabicyclo[3.2.1]octan-8-yl)-N-isopentyl-1H-benzo[d]imidazole-1-carboxamide] | 200 to 1000 nM | 4 µg/mL (≈ 11.7 µM) |
| COc1nc2ccc(N3CCOCC3)cc2n1C(=O)NCCCc1ccc(F)cc1 [Example 221a] | < 200 nM | 4 µg/mL (≈ 9.7 µM) |
| COc1nc2cc(N3CCOCC3)ccc2n1C(=O)NCCCc1ccc(F)cc1 [Example 221b] | < 200 nM | 15 µg/mL (≈ 36.4 µM) |
| CC(=O)N1CCN(c2cccc3c2ncn3C(=O)NCC2(CC(C)C)CC2)CC1 [Example 222, 4-(4-Acetylpiperazin-1-yl)-N-((1-iso-butyl-cyclopropyl)methyl)-1H-benzo[d]imidazole-1-carboxamide] | < 200 nM | 7 µg/mL (≈ 17.6 µM) |

Continued, values first:

| IC50 (acid ceramidase) | solubility [1] | SMILES |
| --- | --- | --- |
| 200 to 1000 nM | 28 µg/mL (≈ 75.8 µM) | CC(C)CCNC(=O)n1cnc2c(N3CCN4CCCCC4C3)cccc21 (stereo not shown) [Example 198, 4-(Hexahydro-1H-pyrido[1,2-a]pyrazin-2(6H)-yl)-N-iso-pentyl-1H-benzo[d]imidazole-1-carboxamide] |
| > 1000 nM | 31 µg/mL (≈ 83.4 µM) | CC(C)CCNC(=O)n1cnc2c(N3CCN4CCOC[C@H]4C3)cccc21 [Example 199, (R)-4-(Hexahydropyrazino[2,1-c][1,4]oxazin-8(1H)-yl)-N-isopentyl-1H-benzo[d]imidazole-1-carboxamide] |
| 200 to 1000 nM | 30 µg/mL (≈ 81.4 µM) | CC(C)CCNC(=O)n1cnc2c(N3CCN(CCC#N)CC3)cccc21 [Example 200, 4-(4-(2-Cyanoethyl)piperazin-1-yl)-N-iso-pentyl-1H-benzo[d]imidazole-1-carboxamide] |
| 200 to 1000 nM | 15 µg/mL (≈ 42 µM) | CCCN1CCN(c2cccc3c2ncn3C(=O)NCCC(C)C)CC1 [Example 202, N-iso-Pentyl-4-(4-propylpiperazin-1-yl)-1H-benzo[d]imidazole-1-carboxamide] |
| < 200 nM | 26 µg/mL (≈ 72.7 µM) | CC(=O)N1CCN(c2cccc3c2ncn3C(=O)NCCC(C)C)CC1 [Example 203, 4-(4-Acetylpiperazin-1-yl)-N-isopentyl-1H-benzo[d]imidazole-1-carboxamide] |
| 200 to 1000 nM | 36 µg/mL (≈ 93.6 µM) | CC(C)CCNC(=O)n1cnc2c(N3CCN(C4CN(C)C4)CC3)cccc21 [Example 204, N-iso-Pentyl-4-(4-(1-methylazetidin-3-yl)-piperazin-1-yl)-1H-benzo[d]imidazole-1-carboxamide] |
| 200 to 1000 nM | 31 µg/mL (≈ 80.6 µM) | CC(C)CCNC(=O)n1cnc2c(N3CC(N4CCN(C)CC4)C3)cccc21 [Example 205, N-iso-Pentyl-4-(3-(4-methylpiperazin-1-yl)-azetidine-1-yl)-1H-benzo[d]imidazole-1-carboxamide] |
| 200 to 1000 nM | 31 µg/mL (≈ 90.3 µM) | CCN1CCN(c2cccc3c2ncn3C(=O)NCCC(C)C)CC1 [Example 208] |
| 200 to 1000 nM | 24 µg/mL (≈ 65 µM) | CC(C)CCNC(=O)n1cnc2c(N3CCN4C(=O)CCC4C3)cccc21 (stereo not shown) [Example 209, N-iso-Pentyl-4-(6-oxohexahydropyrrolo[1,2-a]pyrazin-2(1H)-yl)-1H-benzo[d]imidazole-1-carboxamide] |
| 200 to 1000 nM | 8 µg/mL (≈ 22 µM) | COc1nc2c(N3CCOCC3)cc(F)cc2n1C(=O)NCCC(C)C [Example 212, 6-Fluoro-N-iso-pentyl-2-methoxy-4-morpholino-1H-benzo[d]imidazole-1-carboxamide] |
| < 200 nM | 0.3 µg/mL (≈ 0.703 µM) | COc1nc2cc(N3CCOCC3)c(F)cc2n1C(=O)NCCCCc1ccccc1 [Example 215, 6-Fluoro-2-methoxy-5-morpholino-N-(4-phenylbutyl)-1H-benzo[d]imidazole-1-carboxamide] |
| < 200 nM | 24 µg/mL (≈ 59.2 µM) | CC(=O)N1CCN(c2cccc3c2ncn3C(=O)NCCCc2ccccc2)CC1 [Example 218, 4-(4-Acetylpiperazin-1-yl)-N-(3-phenylpropyl)-1H-benzo[d]imidazole-1-carboxamide] |
| 200 to 1000 nM | 5 µg/mL (≈ 14.6 µM) | CC(C)CCNC(=O)n1cnc2c(N3CC4CCC(C3)O4)cccc21 [Example 221, 4-(8-Oxa-3-azabicyclo[3.2.1]octan-3-yl)-N-isopentyl-1H-benzo[d]imidazole-1-carboxamide] |
| < 200 nM | 15 µg/mL (≈ 38.9 µM) | CC(=O)N1CCN(c2cccc3c2ncn3C(=O)NCCCCC(C)C)CC1 [Example 223, 4-(4-Acetylpiperazin-1-yl)-N-(5-methylhexyl)-1H-benzo[d]imidazole-1-carboxamide] |
| < 200 nM | 4 µg/mL (≈ 9.29 µM) | COc1nc2ccc(N3CCOCC3)cc2n1C(=O)NCCCc1ccc(F)cc1F [Example 224a, N-(3-(2,4-Difluorophenyl)propyl)-2-methoxy-6-morpholino-1H-benzo[d]imidazole-1-carboxamide] |
| < 200 nM | 12 µg/mL (≈ 27.9 µM) | COc1nc2cc(N3CCOCC3)ccc2n1C(=O)NCCCc1ccc(F)cc1F [Example 224b, N-(3-(2,4-difluorophenyl)propyl)-2-methoxy-5-morpholino-1H-benzo[d]-imidazole-1-carboxamide] |
| < 200 nM | 8 µg/mL (≈ 20.1 µM) | CC(=O)N1CCN(c2cccc3c2ncn3C(=O)NCCCC(F)(F)F)CC1 [Example 225, 4-(4-Acetylpiperazin-1-yl)-N-(4,4,4-trifluorobutyl)-1H-benzo[d]imidazole-1-carboxamide] |
| 200 to 1000 nM | 5 µg/mL (≈ 13 µM) | C[C@@H]1CN(c2cccc3c2ncn3C(=O)NCCCC(F)(F)F)C[C@H](C)O1 [Example 226, 4-((2R,6S)-2,6-dimethylmorpholino)-N-(4,4,4-trifluorobutyl)-1H-benzo[d]imidazole-1-carboxamide] |
| < 200 nM | 16 µg/mL (≈ 44.9 µM) | CC(C)CC1(CNC(=O)n2cnc3c(N4CCOCC4)cccc32)CC1 [Example 227, N-((1-iso-Butylcyclopropyl)methyl)-4-morpholino-1H-benzo[d]imidazole-1-carboxamide] |
| 200 to 1000 nM | 29 µg/mL (≈ 75.4 µM) | COc1nc2ccc(N3CCOCC3)cc2n1C(=O)NCCCc1ccco1 [Example 228a, N-(3-(Furan-2-yl)propyl)-2-methoxy-6-morpholino-1H-benzo[d]imidazole-1-carboxamide] |
| 200 to 1000 nM | 33 µg/mL (≈ 85.8 µM) | COc1nc2cc(N3CCOCC3)ccc2n1C(=O)NCCCc1ccco1 [Example 228b, N-(3-(furan-2-yl)propyl)-2-methoxy-5-morpholino-1H-benzo[d]imidazole-1-carboxamide] |
